Assay results as given in patent US9738634B2, “Heterocyclic amide compound and herbicide” (SYNGENTA PARTICIPATIONS AG, priority 2013, dated 2017).

Key:
Assay type in all cases: in vivo
Details in all cases: treatment dosage 320 g/ha
wild oat [1] = assay: Test Example 4: weedkilling efficacy by foliar treatment; G: wild oat
In short: (§1)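 Seeds are spot-sown into sterilized diluvial soil and covered with about 1.5 cm of soil. After 14 days' greenhouse growth at 25 to 30° C, plants are sprayed on stems and leaves with diluted emulsion at the stated g/ha rate, then scored at 3 weeks.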

fig-leafed goosefoot [2] = assay: Test Example 3: weedkilling efficacy through soil treatment; M: fig-leafed goosefoot
In short: (§2)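 Crop and weed responses were judged three weeks after a uniform surface spray of the water-diluted emulsion at the given g/ha rate. Seeds sat beneath about 1.5 cm of sterilized diluvial soil, and boxes stood in a greenhouse at 25 to 30° C.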

crabgrass [3] = assay: Test Example 4: weedkilling efficacy by foliar treatment; D: crabgrass
In short: as §1

chickweed [4] = assay: Test Example 3: weedkilling efficacy through soil treatment; N: chickweed
In short: as §2

directly sown rice [5] = assay: Test Example 3: soil treatment, effect on crop; b: directly sown rice
In short: as §2

beet [6] = assay: Test Example 4: foliar treatment, effect on crop; f: beet
In short: as §1

birds-eye speedwell = assay: Test Example 4: weedkilling efficacy by foliar treatment; p: birds-eye speedwell
In short: as §1

redroot pigweed [7] = assay: Test Example 4: weedkilling efficacy by foliar treatment; L: redroot pigweed
In short: as §1

wheat [8] = assay: Test Example 4: foliar treatment, effect on crop; e: wheat
In short: as §1

barnyard grass [9] = assay: Test Example 4: weedkilling efficacy by foliar treatment; F: barnyard grass
In short: as §1

corn [10] = assay: Test Example 4: foliar treatment, effect on crop; c: corn
In short: as §1

common wind-grass [11] = assay: Test Example 4: weedkilling efficacy by foliar treatment; J: common wind-grass
In short: as §1

barnyard grass [12] = assay: Test Example 2: weedkilling efficacy, growth period weed treatment in the submerged state; A: barnyard grass
In short: (§3)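 Weeds treated at the 1-2 leaf stage by application of diluted emulsion onto floodwater (4 cm depth, alluvial soil) at specified g/ha. Grown in greenhouse at 25 to 30° C; herbicidal effect rated three weeks after treatment.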

rapeseed [13] = assay: Test Example 3: soil treatment, effect on crop; g: rapeseed
In short: as §2

wild oat [14] = assay: Test Example 3: weedkilling efficacy through soil treatment; G: wild oat
In short: as §2

oval-leafed pondweed [15] = assay: Test Example 1: weedkilling efficacy, preemergent weed treatment in the submerged state; C: oval-leafed pondweed
In short: (§4)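 Pre-emergence application onto floodwater (4 cm, alluvial soil) on the day of sowing, dose expressed as g/ha from diluted emulsion formulation. Weeds sown with 2.5-leaf transplanted rice as crop; plants held at 25–30 °C in greenhouse and scored against assessment criteria after 3 weeks.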

black-grass [16] = assay: Test Example 3: weedkilling efficacy through soil treatment; H: black-grass
In short: as §2

green foxtail [17] = assay: Test Example 3: weedkilling efficacy through soil treatment; E: green foxtail
In short: as §2

oval-leafed pondweed [18] = assay: Test Example 2: weedkilling efficacy, growth period weed treatment in the submerged state; C: oval-leafed pondweed
In short: as §3

redroot pigweed [19] = assay: Test Example 3: weedkilling efficacy through soil treatment; L: redroot pigweed
In short: as §2

soybean [20] = assay: Test Example 3: soil treatment, effect on crop; d: soybean
In short: as §2

Indian mallow [21] = assay: Test Example 3: weedkilling efficacy through soil treatment; K: Indian mallow
In short: as §2

corn [22] = assay: Test Example 3: soil treatment, effect on crop; c: corn
In short: as §2

soybean [23] = assay: Test Example 4: foliar treatment, effect on crop; d: soybean
In short: as §1

wheat [24] = assay: Test Example 3: soil treatment, effect on crop; e: wheat
In short: as §2

Italian ryegrass [25] = assay: Test Example 3: weedkilling efficacy through soil treatment; I: Italian ryegrass
In short: as §2

Indian mallow [26] = assay: Test Example 4: weedkilling efficacy by foliar treatment; K: Indian mallow
In short: as §1

catchweed [27] = assay: Test Example 4: weedkilling efficacy by foliar treatment; O: catchweed
In short: as §1

beet [28] = assay: Test Example 3: soil treatment, effect on crop; f: beet
In short: as §2

crabgrass [29] = assay: Test Example 3: weedkilling efficacy through soil treatment; D: crabgrass
In short: as §2

transplanted rice = assay: Test Example 1: preemergent weed treatment in the submerged state, effect on crop; a: transplanted rice
In short: as §4

common wind-grass [30] = assay: Test Example 3: weedkilling efficacy through soil treatment; J: common wind-grass
In short: as §2

barnyard grass [31] = assay: Test Example 1: weedkilling efficacy, preemergent weed treatment in the submerged state; A: barnyard grass
In short: as §4

catchweed [32] = assay: Test Example 3: weedkilling efficacy through soil treatment; O: catchweed
In short: as §2

chickweed [33] = assay: Test Example 4: weedkilling efficacy by foliar treatment; N: chickweed
In short: as §1

directly sown rice [34] = assay: Test Example 4: foliar treatment, effect on crop; b: directly sown rice
In short: as §1

Italian ryegrass [35] = assay: Test Example 4: weedkilling efficacy by foliar treatment; I: Italian ryegrass
In short: as §1

black-grass [36] = assay: Test Example 4: weedkilling efficacy by foliar treatment; H: black-grass
In short: as §1

green foxtail [37] = assay: Test Example 4: weedkilling efficacy by foliar treatment; E: green foxtail
In short: as §1

barnyard grass [38] = assay: Test Example 3: weedkilling efficacy through soil treatment; F: barnyard grass
In short: as §2

bulrush [39] = assay: Test Example 2: weedkilling efficacy, growth period weed treatment in the submerged state; B: bulrush
In short: as §3

bulrush [40] = assay: Test Example 1: weedkilling efficacy, preemergent weed treatment in the submerged state; B: bulrush
In short: as §4

rapeseed [41] = assay: Test Example 4: foliar treatment, effect on crop; g: rapeseed
In short: as §1

fig-leafed goosefoot [42] = assay: Test Example 4: weedkilling efficacy by foliar treatment; M: fig-leafed goosefoot
In short: as §1

**Q.** With `CC1=C(c2ccccc2)C(=O)N(C(C)(C)C(=O)Nc2cc(-c3ccc(F)nc3)ccn2)CO1` [B-5-01] as the molecule, how does the “G (wild oat) weedkilling efficacy grade” value (wild oat [1]) read?
**A.** 0 (weed kill ratio 5% or less (practically no effect))

**Q.** And the “M (fig-leafed goosefoot) weedkilling efficacy grade” value (fig-leafed goosefoot [2])?
**A.** 0 (weed kill ratio 5% or less (practically no effect))

**Q.** What about the “D (crabgrass) weedkilling efficacy grade” value (crabgrass [3]) of the same molecule?
**A.** 0 (weed kill ratio 5% or less (practically no effect))

**Q.** What about the “N (chickweed) weedkilling efficacy grade” value (chickweed [4]) of the same molecule?
**A.** 0 (weed kill ratio 5% or less (practically no effect))

**Q.** What about the “b (directly sown rice) effect on crop grade” value (directly sown rice [5]) of the same molecule?
**A.** 0 (weed kill ratio 5% or less (practically no effect))

**Q.** And the “f (beet) effect on crop grade” value (beet [6])?
**A.** 0 (weed kill ratio 5% or less (practically no effect))

**Q.** And the “P (birds-eye speedwell) weedkilling efficacy grade” value (birds-eye speedwell)?
**A.** 3 (weed kill ratio 40% or more, less than 70%)

**Q.** What about the “L (redroot pigweed) weedkilling efficacy grade” value (redroot pigweed [7]) of the same molecule?
**A.** 0 (weed kill ratio 5% or less (practically no effect))

**Q.** And the “e (wheat) effect on crop grade” value (wheat [8])?
**A.** 0 (weed kill ratio 5% or less (practically no effect))

**Q.** And the “F (barnyard grass) weedkilling efficacy grade” value (barnyard grass [9])?
**A.** 0 (weed kill ratio 5% or less (practically no effect))

**Q.** And the “c (corn) effect on crop grade” value (corn [10])?
**A.** 0 (weed kill ratio 5% or less (practically no effect))

**Q.** And the “J (common wind-grass) weedkilling efficacy grade” value (common wind-grass [11])?
**A.** 0 (weed kill ratio 5% or less (practically no effect))

**Q.** What about the “A (barnyard grass) weedkilling efficacy grade” value (barnyard grass [12]) of the same molecule?
**A.** 3 (weed kill ratio 40% or more, less than 70%)

**Q.** What about the “g (rapeseed) effect on crop grade” value (rapeseed [13]) of the same molecule?
**A.** 0 (weed kill ratio 5% or less (practically no effect))

**Q.** And the “G (wild oat) weedkilling efficacy grade” value (wild oat [14])?
**A.** 0 (weed kill ratio 5% or less (practically no effect))

**Q.** And the “C (oval-leafed pondweed) weedkilling efficacy grade” value (oval-leafed pondweed [15])?
**A.** 4 (weed kill ratio 70% or more, less than 90%)

**Q.** What about the “H (black-grass) weedkilling efficacy grade” value (black-grass [16]) of the same molecule?
**A.** 0 (weed kill ratio 5% or less (practically no effect))

**Q.** And the “E (green foxtail) weedkilling efficacy grade” value (green foxtail [17])?
**A.** 2 (weed kill ratio 20% or more, less than 40%)

**Q.** What about the “C (oval-leafed pondweed) weedkilling efficacy grade” value (oval-leafed pondweed [18]) of the same molecule?
**A.** 4 (weed kill ratio 70% or more, less than 90%)

**Q.** What about the “L (redroot pigweed) weedkilling efficacy grade” value (redroot pigweed [19]) of the same molecule?
**A.** 0 (weed kill ratio 5% or less (practically no effect))

**Q.** And the “d (soybean) effect on crop grade” value (soybean [20])?
**A.** 0 (weed kill ratio 5% or less (practically no effect))

**Q.** And the “K (Indian mallow) weedkilling efficacy grade” value (Indian mallow [21])?
**A.** 0 (weed kill ratio 5% or less (practically no effect))

**Q.** What about the “c (corn) effect on crop grade” value (corn [22]) of the same molecule?
**A.** 0 (weed kill ratio 5% or less (practically no effect))

**Q.** And the “d (soybean) effect on crop grade” value (soybean [23])?
**A.** 0 (weed kill ratio 5% or less (practically no effect))

**Q.** What about the “e (wheat) effect on crop grade” value (wheat [24]) of the same molecule?
**A.** 0 (weed kill ratio 5% or less (practically no effect))

**Q.** What about the “I (Italian ryegrass) weedkilling efficacy grade” value (Italian ryegrass [25]) of the same molecule?
**A.** 0 (weed kill ratio 5% or less (practically no effect))

**Q.** What about the “K (Indian mallow) weedkilling efficacy grade” value (Indian mallow [26]) of the same molecule?
**A.** 0 (weed kill ratio 5% or less (practically no effect))

**Q.** What about the “O (catchweed) weedkilling efficacy grade” value (catchweed [27]) of the same molecule?
**A.** 1 (weed kill ratio 5% or more, less than 20%)

**Q.** What about the “f (beet) effect on crop grade” value (beet [28]) of the same molecule?
**A.** 0 (weed kill ratio 5% or less (practically no effect))

**Q.** What about the “D (crabgrass) weedkilling efficacy grade” value (crabgrass [29]) of the same molecule?
**A.** 0 (weed kill ratio 5% or less (practically no effect))

**Q.** And the “a (transplanted rice) effect on crop grade” value (transplanted rice)?
**A.** 0 (weed kill ratio 5% or less (practically no effect))

**Q.** What about the “J (common wind-grass) weedkilling efficacy grade” value (common wind-grass [30]) of the same molecule?
**A.** 4 (weed kill ratio 70% or more, less than 90%)

**Q.** And the “A (barnyard grass) weedkilling efficacy grade” value (barnyard grass [31])?
**A.** 4 (weed kill ratio 70% or more, less than 90%)

**Q.** What about the “O (catchweed) weedkilling efficacy grade” value (catchweed [32]) of the same molecule?
**A.** 0 (weed kill ratio 5% or less (practically no effect))

**Q.** What about the “N (chickweed) weedkilling efficacy grade” value (chickweed [33]) of the same molecule?
**A.** 0 (weed kill ratio 5% or less (practically no effect))

**Q.** And the “b (directly sown rice) effect on crop grade” value (directly sown rice [34])?
**A.** 0 (weed kill ratio 5% or less (practically no effect))

**Q.** What about the “I (Italian ryegrass) weedkilling efficacy grade” value (Italian ryegrass [35]) of the same molecule?
**A.** 0 (weed kill ratio 5% or less (practically no effect))

**Q.** What about the “H (black-grass) weedkilling efficacy grade” value (black-grass [36]) of the same molecule?
**A.** 0 (weed kill ratio 5% or less (practically no effect))

**Q.** And the “E (green foxtail) weedkilling efficacy grade” value (green foxtail [37])?
**A.** 0 (weed kill ratio 5% or less (practically no effect))

**Q.** And the “F (barnyard grass) weedkilling efficacy grade” value (barnyard grass [38])?
**A.** 0 (weed kill ratio 5% or less (practically no effect))

**Q.** What about the “B (bulrush) weedkilling efficacy grade” value (bulrush [39]) of the same molecule?
**A.** 3 (weed kill ratio 40% or more, less than 70%)

**Q.** What about the “B (bulrush) weedkilling efficacy grade” value (bulrush [40]) of the same molecule?
**A.** 5 (weed kill ratio 90% or more, (practically complete withering))

**Q.** And the “g (rapeseed) effect on crop grade” value (rapeseed [41])?
**A.** 0 (weed kill ratio 5% or less (practically no effect))

**Q.** What about the “M (fig-leafed goosefoot) weedkilling efficacy grade” value (fig-leafed goosefoot [42]) of the same molecule?
**A.** 3 (weed kill ratio 40% or more, less than 70%)
